Test results as given in PMC2248166, “Quantitative peptide binding motifs for 19 human and mouse MHC class I molecules derived using positional scanning combinatorial peptide libraries” (Immunome Research, 2008).
Where a SMILES comes first, the peptide text is derived from it.

Biological target: HLA A*3001 (Homo sapiens, UniProt P04439, D140H/D185E/E176W/F33S/G80R/H175R/K168Q/R138E/R41S)
Assay: biochemical
Format: binding

HLA A*3001, sequence (P04439 25-365 limits assumed, stated change not applied): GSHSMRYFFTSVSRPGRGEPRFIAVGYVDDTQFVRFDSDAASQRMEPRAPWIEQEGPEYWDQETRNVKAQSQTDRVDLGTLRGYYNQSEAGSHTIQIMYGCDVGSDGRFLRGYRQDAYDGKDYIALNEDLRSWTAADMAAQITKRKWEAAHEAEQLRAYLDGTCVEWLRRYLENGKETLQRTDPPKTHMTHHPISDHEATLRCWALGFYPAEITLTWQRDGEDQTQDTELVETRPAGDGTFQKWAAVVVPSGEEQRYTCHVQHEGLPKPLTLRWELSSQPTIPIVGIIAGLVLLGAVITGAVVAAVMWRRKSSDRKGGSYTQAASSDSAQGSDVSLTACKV

SMILES	IC50 [nM]
CC(C)[C@H](NC(=O)[C@H](CO)NC(=O)[C@H](CCCNC(=N)N)NC(=O)[C@H](CCCCN)NC(=O)[C@H](CO)NC(=O)[C@H](CC(N)=O)NC(=O)[C@H](CCCNC(=N)N)NC(=O)[C@H](CC(N)=O)NC(=O)[C@@H](N)CCCCN)C(=O)O [3102.0025] (H-KNRNSKRSV-OH)	33
CC[C@H](C)[C@H](NC(=O)[C@H](CC(N)=O)NC(=O)[C@@H]1CCCN1C(=O)[C@H](CCCNC(=N)N)NC(=O)[C@H](Cc1ccc(O)cc1)NC(=O)[C@@H](N)CC(C)C)C(=O)N1CCC[C@H]1C(=O)N[C@@H](CC(C)C)C(=O)N[C@@H](CCCCN)C(=O)O [3102.0026] (H-LYRPNIPLK-OH)	3.5
CC[C@H](C)[C@H](NC(=O)[C@H](Cc1ccccc1)NC(=O)[C@H](CCCCN)NC(=O)CNC(=O)[C@H](CCC(N)=O)NC(=O)[C@H](CCCNC(=N)N)NC(=O)[C@@H](NC(=O)[C@@H](N)CCCNC(=N)N)[C@@H](C)CC)C(=O)N[C@@H](CCCCN)C(=O)O [3102.0028] (H-RIRQGKFIK-OH)	4.8
CC[C@H](C)[C@H](N)C(=O)N[C@H](C(=O)N[C@@H](CCCCN)C(=O)N[C@@H](CO)C(=O)N[C@@H](CO)C(=O)N[C@@H](Cc1ccc(O)cc1)C(=O)N[C@H](C(=O)N[C@@H](Cc1ccccc1)C(=O)N[C@@H](CCCCN)C(=O)O)C(C)C)[C@@H](C)CC [3102.0029] (H-IIKSSYVFK-OH)	11
CC(C)C[C@H](NC(=O)[C@H](Cc1ccccc1)NC(=O)[C@H](CC(N)=O)NC(=O)[C@H](Cc1ccccc1)NC(=O)[C@@H]1CCCN1C(=O)[C@H](C)NC(=O)[C@H](CC(C)C)NC(=O)[C@@H](NC(=O)[C@@H](N)CCCCN)[C@@H](C)O)C(=O)O [3102.0030] (H-KTLAPFNFL-OH)	15
N=C(N)NCCC[C@H](NC(=O)CNC(=O)[C@@H](N)CCCCN)C(=O)N[C@@H](CCCNC(=N)N)C(=O)N[C@@H](CCC(N)=O)C(=O)N[C@@H](Cc1ccc(O)cc1)C(=O)N[C@@H](Cc1ccccc1)C(=O)N[C@@H](Cc1ccc(O)cc1)C(=O)NCC(=O)O [3102.0035] (H-KGRRQYFYG-OH)	2.9
CC[C@H](C)[C@H](NC(=O)[C@H](CCCCN)NC(=O)[C@@H](NC(=O)[C@@H](N)CCCNC(=N)N)[C@@H](C)O)C(=O)N1CCC[C@H]1C(=O)N[C@@H](CC(C)C)C(=O)N[C@@H](CO)C(=O)N[C@@H](CCCCN)C(=O)N[C@H](C(=O)O)C(C)C [3102.0039] (H-RTKIPLSKV-OH)	4.1
CC[C@H](C)[C@H](NC(=O)CNC(=O)[C@H](CC(C)C)NC(=O)[C@@H]1CCCN1C(=O)CNC(=O)[C@H](CCCNC(=N)N)NC(=O)[C@@H](NC(=O)[C@@H](N)CCCNC(=N)N)[C@@H](C)O)C(=O)N[C@@H](CC(C)C)C(=O)O [3102.0040] (H-RTRGPLGIL-OH)	0.086
CC[C@H](C)[C@H](NC(=O)[C@H](CCCCN)NC(=O)[C@@H](NC(=O)[C@H](CO)NC(=O)[C@H](CCC(N)=O)NC(=O)[C@H](CC(=O)O)NC(=O)[C@H](CCCNC(=N)N)NC(=O)[C@H](CC(C)C)NC(=O)[C@@H](N)Cc1c[nH]cn1)[C@@H](C)CC)C(=O)O [3102.0041] (H-HLRDQSIKI-OH)	15
C[C@@H](O)[C@H](NC(=O)[C@H](CO)NC(=O)CNC(=O)[C@H](CCCNC(=N)N)NC(=O)[C@H](CC(N)=O)NC(=O)CN)C(=O)N[C@@H](CO)C(=O)N[C@@H](Cc1ccccc1)C(=O)N[C@@H](CCCCN)C(=O)O [3102.0043] (H-GNRGSTSFK-OH)	2
CC[C@H](C)[C@H](NC(=O)[C@H](C)NC(=O)[C@H](Cc1c[nH]cn1)NC(=O)[C@H](CO)NC(=O)[C@@H](N)CCCCN)C(=O)N[C@@H](Cc1ccc(O)cc1)C(=O)N[C@@H](Cc1c[nH]c2ccccc12)C(=O)N[C@@H](CC(=O)O)C(=O)N[C@@H](CCCCN)C(=O)O [3102.0046] (H-KSHAIYWDK-OH)	11
C[C@@H](O)[C@H](NC(=O)[C@@H](N)CCCNC(=N)N)C(=O)N[C@@H](Cc1c[nH]cn1)C(=O)N[C@@H](Cc1ccccc1)C(=O)N[C@@H](CO)C(=O)N[C@@H](CCC(N)=O)C(=O)N1CCC[C@H]1C(=O)N[C@@H](CO)C(=O)NCC(=O)O [3102.0048] (H-RTHFSQPSG-OH)	15
